Data from patent publication US11660300B2, “Method of maintaining oral health in animals” (Boehringer Ingelheim Animal Health USA Inc., priority 2006, dated 2023).

How the values were obtained:
Format in all cases: in vivo
dental plaque = test: Presence of dental plaque (erythrosine staining) in beagle dogs given delmopinol dog snack; conditions: for Number of sites with presence of dental plaque on the buccal surfaces: upper jaw (UJ), dogs 1-4 and Sum
Method: (§1) A study was carried out to investigate the effect of dog snacks containing delmopinol on gingivitis and calculus formation in beagle dogs. Eight female dogs were used in the study. […] During a pre-experimental period of four weeks, the teeth in the upper jaws of all dogs were scaled and polished professionally with a rubber cup, pumice and water, on a weekly basis. The teeth of the upper jaws were also thoroughly brushed with a toothbrush and water, for 2 minutes daily. The teeth in the lower jaws were not cleaned. During this pre-experimental period the dogs were fed a soft gingivitis-inducing diet. Using these procedures, two different clinical conditions prevailed in the dogs at the end of the pre-experimental period: in the upper jaw the gingiva was clinically healthy while in the lower jaws gingivitis prevailed. […] In the upper jaws, the presence of plaque and gingivitis was measured at the buccal surfaces of canines, first, second, third, fourth premolars and first molars. In the lower jaws the measurements were undertaken at the buccal surfaces of canines and first molars, in total […] were examined clinically. 12 surfaces were clinically healthy prior to the experimental period and 4 surfaces were not maintained with oral hygiene measures. All experimental procedures, (except the tooth brushing during the pre-experimental period) were performed with the dogs anaesthetized by intravenous Pentothal (Abbot, Belgium). […] The various measurements were taken on days 0, 14 and 28. Clinical photos were taken of the upper jaws at the same occasions as the measurements. The presence of plaque was scored following staining of the teeth with erythrosine dye. Plaque was noted if stained dental plaque was in contact with the buccal gingival margin.

gingivitis = test: Bleeding on probing (gingivitis) in beagle dogs given delmopinol dog snack; conditions: for Number of sites with gingival bleeding at the buccal surfaces: dogs 1-4 and Sum
Method: as §1, with “Bleeding on probing” for “The presence of plaque”, “scored according to Löe, H and Silness, J (1963) Periodontal disease in pregnancy. Prevalence and severity. Acta Odontologica Scandinavia 21, 533-551. Presence of gingivitis was registered if bleeding occurred within 20 seconds” for “scored”, “gentle probing” for “staining”, “of” for “of the teeth with erythrosine dye. Plaque was noted if stained dental plaque was in contact with”

calculus formation = test: Calculus formation in beagle dogs given delmopinol dog snack; conditions: for Number of teeth with calculus on the buccal surfaces of the teeth of the upper jaw: dogs 1-4 and Sum
Method: A study was carried out to investigate the effect of dog snacks containing delmopinol on gingivitis and calculus formation in beagle dogs. Eight female dogs were used in the study. […] During a pre-experimental period of four weeks, the teeth in the upper jaws of all dogs were scaled and polished professionally with a rubber cup, pumice and water, on a weekly basis. The teeth of the upper jaws were also thoroughly brushed with a toothbrush and water, for 2 minutes daily. The teeth in the lower jaws were not cleaned. During this pre-experimental period the dogs were fed a soft gingivitis-inducing diet. Using these procedures, two different clinical conditions prevailed in the dogs at the end of the pre-experimental period: in the upper jaw the gingiva was clinically healthy while in the lower jaws gingivitis prevailed. […] In the upper jaws, the presence of plaque and gingivitis was measured at the buccal surfaces of canines, first, second, third, fourth premolars and first molars. In the lower jaws the measurements were undertaken at the buccal surfaces of canines and first molars, in total […] were examined clinically. 12 surfaces were clinically healthy prior to the experimental period and 4 surfaces were not maintained with oral hygiene measures. All experimental procedures, (except the tooth brushing during the pre-experimental period) were performed with the dogs anaesthetized by intravenous Pentothal (Abbot, Belgium). […] The various measurements were taken on days 0, 14 and 28. Clinical photos were taken of the upper jaws at the same occasions as the measurements. Presence or absence of calculus was noted on the buccal surfaces of the teeth in the upper jaws.

## CCCC(CCC)CCCC1COCCN1CCO (stereo not drawn) [Delmopinol, 3-(4-propyl-heptyl)-4-(2-hydroxyethyl)morpholine]
Dental plaque; Day 0 (baseline), n = 48 sites in sum
  Number of sites with presence of dental plaque on the buccal surfaces: 0 sites
Dental plaque; Day 0 (baseline), n = 48 sites in sum, listed as delmopinol
  Number of sites with presence of dental plaque on the buccal surfaces: plaque free
Dental plaque; Day 14, upper jaw
  reduction in the presence of dental plaque relative the control dogs: around 20%
Dental plaque; Day 28 (14 days after last snack), n = 48
  Number of sites with presence of dental plaque on the buccal surfaces: all teeth
Dental plaque; snacks with or without the tested component
  plaque accumulation: did not alter
gingivitis; Day 0 (baseline), lower jaw (LJ), n = 16
  Number of sites with gingival bleeding at the buccal surfaces: 15 sites
gingivitis; Day 0 (baseline), upper jaw (UJ), n = 48
  Number of sites with gingival bleeding at the buccal surfaces: one
gingivitis; Day 14, lower jaw (LJ), n = 16
  Number of sites with gingival bleeding at the buccal surfaces: five
gingivitis; Day 14, upper jaw (UJ), n = 48
  Number of sites with gingival bleeding at the buccal surfaces: 13 sites
gingivitis; Day 28, lower jaw (LJ), n = 16
  Number of sites with gingival bleeding at the buccal surfaces: 12 sites
gingivitis; Day 28, upper jaw (UJ), n = 48
  Number of sites with gingival bleeding at the buccal surfaces: 21 sites
gingivitis; delmopinol added in the snack, snack alone 50%, lower jaw, day 0 to day 14
  reduction of established gingivitis: 69%
gingivitis; paired t-test p=0.05
  increase of inflammation after stopping pre-experimental oral hygiene, versus control group: significantly less
Calculus formation; Day 0 (baseline), n = 48 measured sites
  Number of teeth with calculus on the buccal surfaces of the teeth of the upper jaw: 0 teeth
Calculus formation; Day 0 (baseline), n = 48 measured sites, listed as delmopinol
  Number of teeth with calculus on the buccal surfaces of the teeth of the upper jaw: None
Calculus formation; Day 14, n = 48 measured sites
  Number of teeth with calculus on the buccal surfaces of the teeth of the upper jaw: 6 teeth
Calculus formation; Day 28, n = 48 measured sites
  Number of teeth with calculus on the buccal surfaces of the teeth of the upper jaw: 37 teeth
Calculus formation; in the presence of dental plaque and with a calculus-promoting soft diet
  calculus formation versus control: strongly reduced
